Assay results taken from US8404859B2, “Thiazole and thiophene compounds” (Hoffmann-La Roche Inc., priority 2011, dated 2013).

Assays:
[1] = target: sLFA-1/ICAM-1 (Homo sapiens, UniProt P05107+P20701, DEL701-769); test: sLFA-1/ICAM-1 ELISA; conditions: sLFA-1 coated plates, 5dICAM-Fc binding, read-out: LFA/ICAM (IC50)
Description: (§1) sLFA-1/ICAM-1 ELISA and Mac-1/ICAM-1 ELISA
(§2) Plates were coated with either 50 μl/well of 2.0 ug/ml solution of sLFA-1 or Mac-1 receptor in divalent cation buffer (1 mM MnCI2, 0.14M NaCl, 20 mM HEPES pH 7.2) at 4° C. overnight. Two hundred fifty μl of blocking buffer (1% BSA in divalent cation buffer) was added to each well 1 hour at 37° C. Plates were washed 3 times with wash buffer (TBS/0.05% Tween-20/1 mM MnCl2). The compound to be tested was solubilized in DMSO. A series of 1:3 dilutions were performed to achieve a concentration range of 0.45 nM-3 uM. Fifty μl of binding buffer (0.5% BSA in divalent cation buffer)/1% DMSO and 50 μl of the solutions to be tested were added to the appropriate wells and incubated for 1 hour. Fifty μl of 5dICAM-Fc (27 ng/ml) was added to the appropriate wells and 50 μl binding buffer was added to non-specific binding wells and incubated for 2 hours and washed. One hundred μl of 1:4000 HRP-goat anti-huIgG was added to each well and incubated for 1 hour and washed. One hundred μl of 1:1 TMB solution was added to each well and developed for 20 min at room temperature. Color development was stopped by adding 100 μl H3PO4 to each well. Absorbance was measured at 450 nm.

[2] = target: Mac-1/ICAM-1 (Homo sapiens, UniProt P05107+P11215); test: Mac-1/ICAM-1 ELISA; conditions: Mac-1 receptor coated plates, 5dICAM-Fc binding
Description: as §1, §2

sLFA-1/ICAM-1, sequence (P20701 26-1090 limits assumed, stated change not applied): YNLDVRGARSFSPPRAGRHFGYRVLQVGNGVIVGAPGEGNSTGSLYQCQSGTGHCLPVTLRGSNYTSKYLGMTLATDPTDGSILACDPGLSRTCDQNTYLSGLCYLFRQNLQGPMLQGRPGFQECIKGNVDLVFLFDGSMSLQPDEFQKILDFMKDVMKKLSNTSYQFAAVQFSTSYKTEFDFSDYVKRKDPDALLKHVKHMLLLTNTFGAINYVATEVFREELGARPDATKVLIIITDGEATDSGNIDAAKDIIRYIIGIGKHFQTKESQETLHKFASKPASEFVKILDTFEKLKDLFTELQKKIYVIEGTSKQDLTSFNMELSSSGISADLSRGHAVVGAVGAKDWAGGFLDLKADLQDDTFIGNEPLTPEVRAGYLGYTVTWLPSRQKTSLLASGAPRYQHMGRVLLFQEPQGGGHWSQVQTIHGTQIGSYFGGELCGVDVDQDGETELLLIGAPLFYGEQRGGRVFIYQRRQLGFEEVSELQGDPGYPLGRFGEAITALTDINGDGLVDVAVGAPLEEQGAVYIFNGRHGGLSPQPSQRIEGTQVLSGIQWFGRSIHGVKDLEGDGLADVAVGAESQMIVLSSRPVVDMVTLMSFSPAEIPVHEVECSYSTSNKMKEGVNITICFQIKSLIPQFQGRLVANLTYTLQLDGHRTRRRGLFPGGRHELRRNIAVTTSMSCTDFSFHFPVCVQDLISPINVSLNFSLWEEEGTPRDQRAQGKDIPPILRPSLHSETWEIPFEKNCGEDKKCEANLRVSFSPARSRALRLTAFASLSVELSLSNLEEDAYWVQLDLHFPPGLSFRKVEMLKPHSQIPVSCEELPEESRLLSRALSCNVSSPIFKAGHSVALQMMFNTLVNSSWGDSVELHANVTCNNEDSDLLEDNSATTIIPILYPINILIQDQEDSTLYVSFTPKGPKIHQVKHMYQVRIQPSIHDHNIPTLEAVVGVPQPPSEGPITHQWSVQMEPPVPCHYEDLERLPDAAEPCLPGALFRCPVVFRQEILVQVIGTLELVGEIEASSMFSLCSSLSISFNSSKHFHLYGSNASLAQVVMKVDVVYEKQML
sLFA-1/ICAM-1, sequence (P05107 23-700 limits assumed, stated change not applied): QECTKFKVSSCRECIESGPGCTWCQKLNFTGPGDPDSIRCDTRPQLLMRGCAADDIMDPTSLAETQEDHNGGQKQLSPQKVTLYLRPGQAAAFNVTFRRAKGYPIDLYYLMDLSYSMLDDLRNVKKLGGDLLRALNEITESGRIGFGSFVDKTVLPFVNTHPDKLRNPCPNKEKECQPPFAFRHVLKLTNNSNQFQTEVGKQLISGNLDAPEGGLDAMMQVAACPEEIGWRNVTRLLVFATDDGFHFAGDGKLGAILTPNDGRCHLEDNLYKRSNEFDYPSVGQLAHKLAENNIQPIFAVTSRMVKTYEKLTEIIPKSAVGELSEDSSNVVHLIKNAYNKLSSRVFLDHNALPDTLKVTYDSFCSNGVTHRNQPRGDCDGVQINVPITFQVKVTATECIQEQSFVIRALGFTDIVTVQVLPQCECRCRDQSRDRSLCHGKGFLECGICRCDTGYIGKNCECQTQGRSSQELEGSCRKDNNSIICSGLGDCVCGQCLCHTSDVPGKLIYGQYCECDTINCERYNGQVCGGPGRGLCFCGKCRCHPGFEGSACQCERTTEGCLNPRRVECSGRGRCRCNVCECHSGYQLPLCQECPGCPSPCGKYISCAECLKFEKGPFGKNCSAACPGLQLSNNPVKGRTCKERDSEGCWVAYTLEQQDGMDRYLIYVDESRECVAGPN
Mac-1/ICAM-1, sequence (P05107 23-769, other chains not shown): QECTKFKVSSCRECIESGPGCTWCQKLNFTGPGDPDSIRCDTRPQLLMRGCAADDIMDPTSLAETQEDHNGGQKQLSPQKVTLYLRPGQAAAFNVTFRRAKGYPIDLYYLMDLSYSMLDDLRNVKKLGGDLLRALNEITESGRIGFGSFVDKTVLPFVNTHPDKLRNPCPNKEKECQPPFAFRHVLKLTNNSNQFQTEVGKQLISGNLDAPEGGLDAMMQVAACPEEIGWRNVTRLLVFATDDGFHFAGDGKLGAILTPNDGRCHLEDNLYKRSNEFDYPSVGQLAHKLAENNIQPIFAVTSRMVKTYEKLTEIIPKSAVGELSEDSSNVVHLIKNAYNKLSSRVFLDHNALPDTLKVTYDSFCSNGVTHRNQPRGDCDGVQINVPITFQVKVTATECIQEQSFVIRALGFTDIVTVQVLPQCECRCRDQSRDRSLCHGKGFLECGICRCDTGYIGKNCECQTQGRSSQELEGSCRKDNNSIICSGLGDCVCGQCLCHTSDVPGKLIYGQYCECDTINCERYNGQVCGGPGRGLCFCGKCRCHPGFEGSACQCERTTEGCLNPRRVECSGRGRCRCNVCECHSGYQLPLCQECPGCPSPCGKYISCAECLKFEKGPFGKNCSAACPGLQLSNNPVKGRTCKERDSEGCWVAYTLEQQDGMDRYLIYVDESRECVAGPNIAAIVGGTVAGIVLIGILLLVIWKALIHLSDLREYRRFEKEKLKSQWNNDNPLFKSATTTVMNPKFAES

IC50 [1] [nM]	IC50 [2] [nM]	SMILES
17		Cc1nc(NC(=O)Cc2cccc(O)c2)sc1C(=O)N[C@@H](CNC(=O)c1cc(F)cc(F)c1)C(=O)O [Example 1, (S)-3-(3,5-Difluoro-benzoylamino)-2-({2-[2-(3-hydroxy-phenyl)-acetylamino]-4-methyl-thiazole-5-carbonyl}-amino)-propionic acid]
4	58	Cc1nc(NC(=O)Cc2cccc(O)c2)sc1C(=O)N[C@@H](CNC(=O)c1cccs1)C(=O)O [Example 2, (S)-2-({2-[2-(3-Hydroxy-phenyl)-acetylamino]-4-methyl-thiazole-5-carbonyl}-amino)-3-[(thiophene-2-carbonyl)-amino]-propionic acid]
85	> 3000	O=C(Cc1cccc(O)c1)Nc1ncc(C(=O)N[C@@H](CNC(=O)c2cccs2)C(=O)O)s1 [Example 3, (S)-2-({2-[2-(3-Hydroxy-phenyl)-acetylamino]-thiazole-5-carbonyl}-amino)-3-[(thiophene-2-carbonyl)-amino]-propionic acid]
6		Cc1nc(NC(=O)Cc2cccc(O)c2)sc1C(=O)N[C@@H](CNC(=O)c1ccccc1)C(=O)O [Example 4, (S)-3-Benzoylamino-2-([2-[2-(3-hydroxy-phenyl)-acetylamino]-4-methyl-thiazole-5-carbonyl]-amino)-propionic acid]
2	300	Cc1nc(NC(=O)Cc2cccc(O)c2)sc1C(=O)N[C@@H](CNC(=O)c1cccc(O)c1)C(=O)O [Example 5, (S)-3-(3-Hydroxy-benzoylamino)-2-({2-[2-(3-hydroxy-phenyl)-acetylamino]-4-methyl-thiazole-5-carbonyl}-amino)-propionic acid]
3		Cc1nc(NC(=O)Cc2cccc(O)c2)sc1C(=O)N[C@@H](CNC(=O)c1cc(O)cc(O)c1)C(=O)O [Example 6, (S)-3-(3,5-Dihydroxy-benzoylamino)-2-({2-[2-(3-hydroxy-phenyl)-acetylamino]-4-methyl-thiazole-5-carbonyl}-amino)-propionic acid]
5	30	Cc1nc(NC(=O)Cc2cccc(O)c2)sc1C(=O)N[C@@H](CNC(=O)c1ccsc1)C(=O)O [Example 7, (S)-2-({2-[2-(3-Hydroxy-phenyl)-acetylamino]-4-methyl-thiazole-5-carbonyl}-amino)-3-[(thiophene-3-carbonyl)-amino]-propionic acid]
7	32	O=C(Cc1cccc(O)c1)Nc1nc(Cl)c(C(=O)N[C@@H](CNC(=O)c2cccs2)C(=O)O)s1 [Example 8, (S)-2-({4-Chloro-2-[2-(3-hydroxy-phenyl)-acetylamino]-thiazole-5-carbonyl}-amino)-3-[(thiophene-2-carbonyl)-amino]-propionic acid]
30	82	O=C(Cc1cccc(O)c1)Nc1nc(C(F)(F)F)c(C(=O)N[C@@H](CNC(=O)c2cccs2)C(=O)O)s1 [Example 9, (S)-2-([2-[2-(3-Hydroxy-phenyl)-acetylamino]-4-trifluoromethyl-thiazole-5-carbonyl]-amino)-3-[(thiophene-2-carbonyl)-amino]-propionic acid]
44	20	Cc1nc(NC(=O)CCc2cccc(O)c2)sc1C(=O)N[C@@H](CNC(=O)c1cc(O)cc(O)c1)C(=O)O [Example 10, (S)-3-(3,5-Dihydroxy-benzoylamino)-2-({2-[3-(3-hydroxy-phenyl)-propionylamino]-4-methyl-thiazole-5-carbonyl}-amino)-propionic acid]
90		Cc1nc(NC(=O)CCc2cccc(O)c2)sc1C(=O)N[C@@H](CNC(=O)c1cccs1)C(=O)O [Example 11, (S)-2-([2-[3-(3-Hydroxy-phenyl)-propionylamino]-4-methyl-thiazole-5-carbonyl]-amino)-3-[(thiophene-2-carbonyl)-amino]-propionic acid]
13	27	Cc1nc(NCCc2cccc(O)c2)sc1C(=O)N[C@@H](CNC(=O)c1cc(O)cc(O)c1)C(=O)O [Example 12, (S)-3-(3,5-Dihydroxy-benzoylamino)-2-({2-[2-(3-hydroxy-phenyl)-ethylamino]-4-methyl-thiazole-5-carbonyl}-amino)-propionic acid]
52	> 3000	Cc1nc(OCCCc2cccc(O)c2)sc1C(=O)N[C@@H](CNC(=O)c1cccs1)C(=O)O [Example 13, (S)-2-({2-[3-(3-Hydroxy-phenyl)-propoxy]-4-methyl-thiazole-5-carbonyl}-amino)-3-[(thiophene-2-carbonyl)-amino]-propionic acid]
8	89	Cc1nc(NC(=O)Cc2cccc3[nH]ncc23)sc1C(=O)N[C@@H](CNC(=O)c1cccs1)C(=O)O [Example 14, (S)-2-{[2-(2-1H-Indazol-4-yl-acetylamino)-4-methyl-thiazole-5-carbonyl]-amino}-3-[(thiophene-2-carbonyl)-amino]-propionic acid]
3	12	Cc1nc(NC(=O)Cc2cccc3[nH]ncc23)sc1C(=O)N[C@@H](CNC(=O)c1cc(O)cc(O)c1)C(=O)O [Example 15, (S)-3-(3,5-Dihydroxy-benzoylamino)-2-{[2-(2-1H-indazol-4-yl-acetylamino)-4-methyl-thiazole-5-carbonyl}-amino]-propionic acid]
17		O=C(Cc1cccc2[nH]ncc12)Nc1nc(C(F)(F)F)c(C(=O)N[C@@H](CNC(=O)c2cccs2)C(=O)O)s1 [Example 16, (S)-2-{[2-(2-1H-Indazol-4-yl-acetylamino)-4-trifluoromethyl-thiazole-5-carbonyl]-amino}-3-[(thiophene-2-carbonyl)-amino]-propionic acid]
27		Cc1cc(C(=O)NC(C)c2cccc(O)c2)sc1C(=O)N[C@@H](CNC(=O)c1cccs1)C(=O)O (stereo partly drawn) [Example 37, (S)-2-({5-[1-(3-hydroxy-phenyl)-ethylcarbamoyl]-3-methyl-thiophen-2-carbonyl}-amino)-3-[(thiophene-2-carbonyl)-amino]-propionic acid]
> 3000		COc1cc(C(=O)NC[C@H](NC(=O)c2sc(C(=O)NCc3cccc(O)c3)cc2C)C(=O)O)nc(OC)n1 [Example 43, (S)-3-[(2,6-dimethoxy-pyrimidine-4-carbonyl)-amino]-2-{[5-(3-hydroxy-benzylcarbamoyl)-3-methyl-thiophene-2-carbonyl]-amino}-propionic acid]
17		Cc1cc(C(=O)NCc2cccc(O)c2)sc1C(=O)N[C@@H](CNC(=O)c1cccc2[nH]ncc12)C(=O)O [Example 44, (S)-2-{[5-(3-hydroxy-benzylcarbamoyl)-3-methyl-thiophene-2-carbonyl]-amino}-3-[(1H-indazole-4-carbonyl)-amino]-propionic acid]
763		Cc1cc(C(=O)NCc2cccc(O)c2)sc1C(=O)N[C@@H](CNC(=O)c1cnc(O)cn1)C(=O)O [Example 45, (S)-2-{[5-(3-hydroxy-benzylcarbamoyl)-3-methyl-thiophene-2-carbonyl]-amino}-3-[(5-hydroxy-pyrazine-2-carbonyl)-amino]-propionic acid]
51		Cc1cc(C(=O)NCc2cccc(O)c2)sc1C(=O)N[C@@H](CNC(=O)c1cccc2[nH]cnc12)C(=O)O [Example 46, (S)-3-[(1H-benzoimidazole-4-carbonyl)-amino]-2-{[5-(3-hydroxy-benzylcarbamoyl)-3-methyl-thiophene-2-carbonyl]-amino}-propionic acid]
289		Cc1cc(C(=O)NCc2cccc(O)c2)sc1C(=O)N[C@@H](CNC(=O)c1cccc(C(=O)O)c1)C(=O)O [Example 47, (S)-3-[(benzoic acid-3-carbonyl)-amino]-2-{[5-(3-hydroxy-benzylcarbamoyl)-3-methyl-thiophene-2-carbonyl]-amino}-propionic acid]
85		Cc1cc(C(=O)NCCc2cccc(O)c2)sc1C(=O)N[C@@H](CNC(=O)c1cccs1)C(=O)O [Example 48, (S)-2-({5-[2-(3-hydroxy-phenyl)ethyl-carbamoyl]-3-methyl-thiophen-2-carbonyl}-amino)-3-[(thiophene-2-carbonyl)-amino]-propionic acid]
1550		O=C(NC[C@H](NC(=O)c1sc(C(=O)NCc2cccc(O)c2)cc1-c1ccccc1)C(=O)O)c1cccs1 [Example 53, (S)-2-{[5-(3-Hydroxy-benzylcarbamoyl)-3-phenyl-thiophene-2-carbonyl]-amino}-3-[(thiophene-2-carbonyl)-amino]-propionic acid]
3		N#Cc1cc(C(=O)NCc2cccc(O)c2)sc1C(=O)N[C@@H](CNC(=O)c1cccs1)C(=O)O [Example 65, (S)-2-{[3-Cyano-5-(3-hydroxy-benzylcarbamoyl)-thiophene-2-carbonyl]-amino}-3-[(thiophene-2-carbonyl)-amino]-propionic acid]
41		N#Cc1cc(C(=O)NCc2cccc3[nH]ncc23)sc1C(=O)N[C@@H](CNC(=O)c1cc(O)cc(O)c1)C(=O)O [Example 66, (S)-2-({3-Cyano-5-[(1H-indazol-4-ylmethyl)-carbamoyl]-thiophene-2-carbonyl}-amino)-3-(3,5-dihydroxy-benzoylamino)-propionic acid]
